Patent US12091402B2 (Avilar Therapeutics, Inc., priority 2021, dated 2024)
Where a SMILES comes first, the peptide text is derived from it. Bridges are numbered along the chain shown (N, C = ends). The star is where a group is joined. X5 = O=C(CCCCCn1cc(CCCC(=O)*)nn1)NC(COCc1cn(CCOCCOCCOCCOC[C@H]2OC[C@H](Nc3nccc(C(F)(F)F)n3)[C@@H](O)[C@H]2O)nn1)COCc1cn(CCOCCOCCOCCOC[C@H]2OC[C@H](Nc3nccc(C(F)(F)F)n3)[C@@H](O)[C@H]2O)nn1; X4 = O=C(CCCc1cn(C[C@H]2OC[C@H](Nc3nccc(C(F)(F)F)n3)[C@@H](O)[C@H]2O)nn1)*; PEG4 = NCCOCCOCCOCCOCCC(=O)O

These compounds were tested against T1, ASGPR (Homo sapiens, UniProt P07306) (assay: Affinity to ASGPR by surface plasmon resonance (SPR)).
T1 sequence (P07306 1-291): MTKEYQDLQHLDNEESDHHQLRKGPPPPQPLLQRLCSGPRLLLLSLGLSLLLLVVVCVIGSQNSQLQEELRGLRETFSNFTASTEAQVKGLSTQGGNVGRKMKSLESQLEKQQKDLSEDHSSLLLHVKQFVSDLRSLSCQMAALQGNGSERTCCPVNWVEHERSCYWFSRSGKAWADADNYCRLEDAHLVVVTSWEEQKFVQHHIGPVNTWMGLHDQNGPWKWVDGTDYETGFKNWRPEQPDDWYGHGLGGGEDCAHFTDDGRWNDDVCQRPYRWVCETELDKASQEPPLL
Protocol: Biotinylated ASGPR (20 μg/ml) was immobilized on SA sensor chips (GE Healthcare) at flow rate of 5 μl/min for 90 sec reaching an immobilization level ranging from 500-3000 resonance units (RU). The running buffer was 50 mM HEPES, pH7.5, 150 mM NaCl, 50 mM CaCl2), 0.01% P20, 3% DMSO. The concentration of compounds vary from 2 mM to 5 nM depending on Kd values. The compounds are diluted 2 or 3-fold with 8 concentration points. Solutions containing serially diluted compounds are injected at a flow rate of 40 μL/min for 150-300 sec followed by a 90-300 sec dissociation phase for each concentration. The surface was regenerated using 50 mM HEPES, pH 7.5, 150 mM NaCl, 5 mM EDTA, 0.01% P20, 3% DMSO.
Data was processed using the analysis software in Biacore 8K to perform background subtraction, double referencing, and solvent correction. Values of affinity expressed as the dissociation constants (Kd) were determined by fitting the steady state binding responses (RUs) as a function of the concentration ([Compound]) using the following equation: RU=RUmax/(KD+[Compound]), where RU max is the calculated maximal response. Where appropriate double-referenced data were fit to using a 1:1 binding model for kinetic analysis.

Row | SMILES | Kd [µM]
1 | CC(C)C[C@@H]1NC(=O)[C@@H](NC(=O)[C@@H](NC(=O)[C@H](CCC(N)=O)NC(=O)[C@H](Cc2cnc[nH]2)NC(=O)CCOCCOCCOCCOCCNC(=O)CCCc2cn(CCCCCC(=O)NC(COCc3cn(CCOCCOCCOCCOC[C@H]4OC[C@H](Nc5nccc(C(F)(F)F)n5)[C@@H](O)[C@H]4O)nn3)COCc3cn(CCOCCOCCOCCOC[C@H]4OC[C@H](Nc5nccc(C(F)(F)F)n5)[C@@H](O)[C@H]4O)nn3)nn2)C(C)C)CSSC[C@@H](C(=O)N[C@@H](Cc2ccccc2)C(=O)N[C@@H](CO)C(=O)N[C@H](C(N)=O)[C@@H](C)O)NC(=O)[C@H](C(C)C)NC(=O)[C@@H]2CCCN2C(=O)[C@H](CCCNC(=N)N)NC(=O)CNC(=O)[C@H](CCCNC(=N)N)NC(=O)[C@H](Cc2ccc(O)cc2)NC(=O)[C@H](CO)NC1=O [Compound 57] ({X5-PEG4}-HQVCLSYRGRPVCFST-NH2; disulfide 4-13) | < 0.1
2 | CCOC(=O)c1ccc(Cl)nc1N[C@H]1[C@H]2OC[C@](CO)(O2)[C@H](O)[C@@H]1O [A112, ethyl 6-chloro-2-(((1S,2R,3R,4R,5S)-2,3-dihydroxy-1-(hydroxymethyl)-6,8-dioxabicyclo[3.2.1]octan-4-yl)amino)nicotinate] | 1 to 10
3 | OC[C@@]12CO[C@@H](O1)[C@H](Nc1nc(Cl)ncc1C(F)(F)F)[C@@H](O)[C@H]2O [A114, (1S,2R,3R,4R,5S)-4-((2-chloro-5-(trifluoromethyl)pyrimidin-4-yl)amino)-1-(hydroxymethyl)-6,8-dioxabicyclo[3.2.1]octane-2,3-diol] | < 1
4 | C=CCO[C@H]1O[C@H](Cn2ccnn2)[C@H](O)[C@H](O)[C@H]1NC(=O)C(F)(F)F [A70, N-((2S,3R,4R,5R,6R)-6-((1H-1,2,3-triazol-1-yl)methyl)-2-(allyloxy)-4,5-dihydroxytetrahydro-2H-pyran-3-yl)-2,2,2-trifluoroacetamide] | < 1
5 | OC[C@H]1OC[C@H](Nc2nc(C(F)(F)F)ccc2F)[C@@H](O)[C@H]1O [A77, (2R,3R,4R,5S)-5-((3-fluoro-6-(trifluoromethyl)pyridin-2-yl)amino)-2-(hydroxymethyl)tetrahydro-2H-pyran-3,4-diol] | < 1
6 | OC[C@H]1OC[C@H](Nc2ccc(F)c(C(F)(F)F)n2)[C@@H](O)[C@H]1O [A82, (2R,3R,4R,5S)-5-((5-fluoro-6-(trifluoromethyl)pyridin-2-yl)amino)-2-(hydroxymethyl)tetrahydro-2H-pyran-3,4-diol] | 1 to 10
7 | C=CCO[C@H]1O[C@H](Cn2cc(-c3cccc(OC)c3)nn2)[C@H](O)[C@H](O)[C@H]1Nc1nccc(C(F)(F)F)n1 [A58, (2R,3R,4R,5R,6S)-6-(allyloxy)-2-((4-(3-methoxyphenyl)-1H-1,2,3-triazol-1-yl)methyl)-5-((4-(trifluoromethyl)pyrimidin-2-yl)amino)tetrahydro-2H-pyran-3,4-diol] | 1 to 10
8 | [N-]=[N+]=NC[C@@]12CO[C@@H](O1)[C@H](Nc1nc(Cl)ns1)[C@@H](O)[C@H]2O [A74, (1S,2R,3R,4R,5S)-1-(azidomethyl)-4-((3-chloro-1,2,4-thiadiazol-5-yl)amino)-6,8-dioxabicyclo[3.2.1]octane-2,3-diol] | < 1
9 | CC(C)C[C@@H]1NC(=O)[C@@H](NC(=O)[C@@H](NC(=O)[C@H](CCC(N)=O)NC(=O)[C@H](Cc2c[nH]cn2)NC(=O)CCOCCOCCOCCOCCNC(=O)CCCc2cn(C[C@H]3OC[C@H](Nc4nccc(C(F)(F)F)n4)[C@@H](O)[C@H]3O)nn2)C(C)C)CSSC[C@@H](C(=O)N[C@@H](Cc2ccccc2)C(=O)N[C@@H](CO)C(=O)N[C@H](C(N)=O)[C@@H](C)O)NC(=O)[C@H](C(C)C)NC(=O)[C@@H]2CCCN2C(=O)[C@H](CCCNC(=N)N)NC(=O)CNC(=O)[C@H](CCCNC(=N)N)NC(=O)[C@H](Cc2ccc(O)cc2)NC(=O)[C@H](CO)NC1=O [Compound 18] ({X4-PEG4}-HQVCLSYRGRPVCFST-NH2; disulfide 4-13) | 0.5 to 1
10 | C=CCO[C@H]1O[C@H](Cn2cc(CO)nn2)[C@H](O)[C@H](O)[C@H]1Nc1nccc(C(F)(F)F)n1 [A64, (2R,3R,4R,5R,6S)-6-(allyloxy)-2-((4-(hydroxymethyl)-1H-1,2,3-triazol-1-yl)methyl)-5-((4-(trifluoromethyl)pyrimidin-2-yl)amino)tetrahydro-2H-pyran-3,4-diol] | 1 to 10
11 | N#Cc1nc(N[C@H]2CO[C@H](CO)[C@H](O)[C@@H]2O)cc(C(F)(F)F)n1 [A79, 4-(((3S,4R,5R,6R)-4,5-dihydroxy-6-(hydroxymethyl)tetrahydro-2H-pyran-3-yl)amino)-6-(trifluoromethyl)pyrimidine-2-carbonitrile] | > 20
12 | C[C@@H]1O[C@H](CO)[C@H](O)[C@H](O)[C@H]1Nc1nc(Cl)ns1 [A56, (2R,3R,4R,5R,6S)-5-((3-chloro-1,2,4-thiadiazol-5-yl)amino)-2-(hydroxymethyl)-6-methyltetrahydro-2H-pyran-3,4-diol] | 1 to 10
13 | OC[C@H]1O[C@H](OCC2CO2)[C@H](Nc2nccc(C(F)(F)F)n2)[C@@H](O)[C@H]1O (stereo partly drawn) [A76, (2R,3R,4R,5R,6S)-2-(hydroxymethyl)-6-(oxiran-2-ylmethoxy)-5-((4-(trifluoromethyl)pyrimidin-2-yl)amino)tetrahydro-2H-pyran-3,4-diol] | < 1
14 | CCOC(=O)c1cnc(C(F)(F)F)nc1N[C@H]1[C@H]2OC[C@](CO)(O2)[C@H](O)[C@@H]1O [A110, ethyl 4-(((1S,2R,3R,4R,5S)-2,3-dihydroxy-1-(hydroxymethyl)-6,8-dioxabicyclo[3.2.1]octan-4-yl)amino)-2-(trifluoromethyl)pyrimidine-5-carboxylate] | 1 to 10
15 | C=CCO[C@H]1O[C@H](CN=[N+]=[N-])[C@H](O)[C@H](O)[C@H]1Nc1nccc(C(F)(F)F)n1 [A72, (2R,3R,4R,5R,6S)-6-(allyloxy)-2-(azidomethyl)-5-((4-(trifluoromethyl)pyrimidin-2-yl)amino)tetrahydro-2H-pyran-3,4-diol] | < 1
16 | N#Cc1cc(N[C@H]2[C@H]3OC[C@](CO)(O3)[C@H](O)[C@@H]2O)cnc1Cl [A41, 2-chloro-5-[[(1S,2R,3R,4R,5S)-2,3-dihydroxy-1-(hydroxymethyl)-6,8-dioxabicyclo[3.2.1]octan-4-yl]amino]pyridine-3-carbonitrile] | 1 to 10
17 | N#Cc1cc(F)cnc1N[C@H]1[C@H]2OC[C@](CO)(O2)[C@H](O)[C@@H]1O [A40, 2-[[(1S,2R,3R,4R,5S)-2,3-dihydroxy-1-(hydroxymethyl)-6,8-dioxabicyclo[3.2.1]octan-4-yl]amino]-5-fluoro-pyridine-3-carbonitrile] | 1 to 10

Continued, values first:

Row | Kd [µM] | SMILES
18 | < 0.1 | NC(COCCC(=O)NCCOCCOCCOCCOC[C@H]1OC[C@H](Nc2nccc(C(F)(F)F)n2)[C@@H](O)[C@H]1O)COCCC(=O)NCCOCCOCCOCCOC[C@H]1OC[C@H](Nc2nccc(C(F)(F)F)n2)[C@@H](O)[C@H]1O [A13, 3,3′-((2-aminopropane-1,3-diyl)bis(oxy))bis(N-(1-((2R,3R,4R,5S)-3,4-dihydroxy-5-((4-(trifluoromethyl)pyrimidin-2-yl)amino)tetrahydro-2H-pyran-2-yl)-2,5,8,11-tetraoxatridecan-13-yl)propanamide)]
19 | 10 to 100 | COc1cccc(-n2cc([C@H]3OC[C@H](Nc4nccc(C(F)(F)F)n4)[C@@H](O)[C@H]3O)nn2)c1 [A61, (2R,3R,4R,5S)-2-(1-(3-methoxyphenyl)-1H-1,2,3-triazol-4-yl)-5-((4-(trifluoromethyl)pyrimidin-2-yl)amino)tetrahydro-2H-pyran-3,4-diol]
20 | 1 to 10 | C[Si](C)(C)c1cn(C[C@H]2OC[C@H](Nc3nccc(C(F)(F)F)n3)[C@@H](O)[C@H]2O)nn1 [A66, (2R,3R,4R,5S)-5-((4-(trifluoromethyl)pyrimidin-2-yl)amino)-2-((4-(trimethylsilyl)-1H-1,2,3-triazol-1-yl)methyl)tetrahydro-2H-pyran-3,4-diol]
21 | < 0.1 | O=C(O)CC(=O)NC(COCCC(=O)NC[C@H]1OC[C@H](Nc2cncc(C(F)(F)F)n2)[C@@H](O)[C@H]1O)COCCC(=O)NC[C@H]1OC[C@H](Nc2cncc(C(F)(F)F)n2)[C@@H](O)[C@H]1O [A33, 3-((1,15-bis((2R,3R,4R,5S)-3,4-dihydroxy-5-((6-(trifluoromethyl)pyrazin-2-yl)amino)tetrahydro-2H-pyran-2-yl)-3,13-dioxo-6,10-dioxa-2,14-diazapentadecan-8-yl)amino)-3-oxopropanoic acid]
22 | < 1 | O[C@@H]1[C@H](O)[C@@H](Nc2nccc(C(F)(F)F)n2)CO[C@@H]1Cn1ccnn1 [A67, (2R,3R,4R,5S)-2-((1H-1,2,3-triazol-1-yl)methyl)-5-((4-(trifluoromethyl)pyrimidin-2-yl)amino)tetrahydro-2H-pyran-3,4-diol]
23 | < 0.1 | O=C(O)COCCOCCOCC(=O)NC(COCCC(=O)NCCOCCOCCOCCOC[C@H]1OC[C@H](Nc2nccc(C(F)(F)F)n2)[C@@H](O)[C@H]1O)COCCC(=O)NCCOCCOCCOCCOC[C@H]1OC[C@H](Nc2nccc(C(F)(F)F)n2)[C@@H](O)[C@H]1O [A23, 1-((2R,3R,4R,5S)-3,4-dihydroxy-5-((4-(trifluoromethyl)pyrimidin-2-yl)amino)tetrahydro-2H-pyran-2-yl)-20-(1-((2R,3R,4R,5S)-3,4-dihydroxy-5-((4-(trifluoromethyl)pyrimidin-2-yl)amino)tetrahydro-2H-pyran-2-yl)-15-oxo-2,5,8,11,18-pentaoxa-14-azanonadecan-19-yl)-15,22-dioxo-2,5,8,11,18,24,27,30-octaoxa-14,21-diazadotriacontan-32-oic acid]
24 | < 0.1 | O=C(CCOCC(COCCC(=O)NCCOCCOCCOCCOC[C@H]1OC[C@H](Nc2nccc(C(F)(F)F)n2)[C@@H](O)[C@H]1O)NC(=O)COCCOCCOCC(=O)NCCN1C(=O)C=CC1=O)NCCOCCOCCOCCOC[C@H]1OC[C@H](Nc2nccc(C(F)(F)F)n2)[C@@H](O)[C@H]1O [A130]
